Reference: the supplement of paper PMC10307832

Columns and labels:
Experiment in all cases: relative viability (nuclei count vs DMSO), 5 days (fraction); higher = more cells survive
[1] = compound: CN(C)C/C=C/C(=O)Nc1cc2c(Nc3ccc(F)c(Cl)c3)ncnc2cc1O[C@H]1CCOC1 [Afatinib] + COc1cc2c(Oc3ccc(NC(=O)C4(C(=O)Nc5ccc(F)cc5)CC4)cc3F)ccnc2cc1OCCCN1CCOCC1 [Foretinib] (partner 0.25 µM)
Method in brief: (§1)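 Lung cancer cell lines, seeded in 1536-well plates, were treated the following day by pin tool with a single drug or with five library-drug doses (not always all listed) in √10 steps on top of a fixed anchor-drug dose. Cells were fixed and nuclei stained in one step after 5 days, and nuclei were counted. Relative viability is the nuclei count for treated wells divided by that for vehicle wells, reported as medians of duplicate plates.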

[2] = compound: CN(C)C/C=C/C(=O)Nc1cc2c(Nc3ccc(F)c(Cl)c3)ncnc2cc1O[C@H]1CCOC1 [Afatinib] + COc1cccc2cc(-c3nc([C@H]4CC[C@H](C(=O)O)CC4)n4ncnc(N)c34)[nH]c12 [OSI-027] (partner 0.5 µM)
Method in brief: as §1

[3] = compound: CN(C)C/C=C/C(=O)Nc1cc2c(Nc3ccc(F)c(Cl)c3)ncnc2cc1O[C@H]1CCOC1 [Afatinib] + NC(=O)Nc1cc(-c2cccc(F)c2)sc1C(=O)N[C@H]1CCCNC1 [AZD7762] (partner 0.2 µM)
Method in brief: as §1

[4] = compound: CN(C)C/C=C/C(=O)Nc1cc2c(Nc3ccc(F)c(Cl)c3)ncnc2cc1O[C@H]1CCOC1 [Afatinib] + Nc1nc2[nH]cc(CCc3ccc(C(=O)N[C@@H](CCC(=O)O)C(=O)O)cc3)c2c(=O)[nH]1 [Pemetrexed] (partner 0.2 µM)
Method in brief: as §1

HARA
relative viability ([1]; first compound 0.005 µM): 0.825 | relative viability ([1]; first compound 0.01581 µM): 0.451 | relative viability ([1]; first compound 0.05 µM): 0.401 | relative viability ([1]; first compound 0.1581 µM): 0.377 | relative viability ([1]; first compound 0.5 µM): 0.403 | relative viability ([2]; first compound 0.005 µM): 0.365 | relative viability ([2]; first compound 0.01581 µM): 0.228 | relative viability ([2]; first compound 0.05 µM): 0.163 | relative viability ([2]; first compound 0.1581 µM): 0.234 | relative viability ([2]; first compound 0.5 µM): 0.293 | relative viability ([3]; first compound 0.05 µM): 0.225 | relative viability ([3]; first compound 0.1581 µM): 0.217 | relative viability ([3]; first compound 0.5 µM): 0.287 | relative viability ([4]; first compound 0.005 µM): 0.21 | relative viability ([4]; first compound 0.05 µM): 0.185 | relative viability ([4]; first compound 0.1581 µM): 0.217 | relative viability ([4]; first compound 0.5 µM): 0.225

NCI-H2126
relative viability ([1]; first compound 0.005 µM): 1.03 | relative viability ([1]; first compound 0.01581 µM): 1.19 | relative viability ([1]; first compound 0.05 µM): 1.08 | relative viability ([1]; first compound 0.1581 µM): 0.729 | relative viability ([1]; first compound 0.5 µM): 0.853 | relative viability ([2]; first compound 0.005 µM): 0.732 | relative viability ([2]; first compound 0.01581 µM): 0.641 | relative viability ([2]; first compound 0.05 µM): 0.547 | relative viability ([2]; first compound 0.1581 µM): 0.494 | relative viability ([2]; first compound 0.5 µM): 0.415 | relative viability ([3]; first compound 0.005 µM): 1.02 | relative viability ([3]; first compound 0.01581 µM): 1.02 | relative viability ([3]; first compound 0.05 µM): 0.822 | relative viability ([3]; first compound 0.1581 µM): 0.776 | relative viability ([3]; first compound 0.5 µM): 0.793 | relative viability ([4]; first compound 0.005 µM): 0.715 | relative viability ([4]; first compound 0.01581 µM): 0.66 | relative viability ([4]; first compound 0.05 µM): 0.623 | relative viability ([4]; first compound 0.1581 µM): 0.469 | relative viability ([4]; first compound 0.5 µM): 0.45

LXF-289
relative viability ([1]; first compound 0.005 µM): 0.983 | relative viability ([1]; first compound 0.01581 µM): 0.977 | relative viability ([1]; first compound 0.05 µM): 0.905 | relative viability ([1]; first compound 0.1581 µM): 0.91 | relative viability ([1]; first compound 0.5 µM): 0.884 | relative viability ([2]; first compound 0.005 µM): 0.82 | relative viability ([2]; first compound 0.01581 µM): 0.606 | relative viability ([2]; first compound 0.05 µM): 0.62 | relative viability ([2]; first compound 0.1581 µM): 0.602 | relative viability ([2]; first compound 0.5 µM): 0.67 | relative viability ([3]; first compound 0.005 µM): 1.05 | relative viability ([3]; first compound 0.01581 µM): 1.03 | relative viability ([3]; first compound 0.05 µM): 1.11 | relative viability ([3]; first compound 0.1581 µM): 1.02 | relative viability ([3]; first compound 0.5 µM): 1.02 | relative viability ([4]; first compound 0.005 µM): 0.909 | relative viability ([4]; first compound 0.01581 µM): 0.88 | relative viability ([4]; first compound 0.05 µM): 0.843 | relative viability ([4]; first compound 0.1581 µM): 0.879 | relative viability ([4]; first compound 0.5 µM): 0.824

NCI-H460
relative viability ([1]; first compound 0.005 µM): 0.987 | relative viability ([1]; first compound 0.01581 µM): 0.895 | relative viability ([1]; first compound 0.05 µM): 0.943 | relative viability ([1]; first compound 0.1581 µM): 1.07 | relative viability ([1]; first compound 0.5 µM): 0.978 | relative viability ([2]; first compound 0.005 µM): 0.716 | relative viability ([2]; first compound 0.01581 µM): 0.629 | relative viability ([2]; first compound 0.05 µM): 0.676 | relative viability ([2]; first compound 0.1581 µM): 0.705 | relative viability ([2]; first compound 0.5 µM): 0.666 | relative viability ([3]; first compound 0.005 µM): 0.396 | relative viability ([3]; first compound 0.01581 µM): 0.595 | relative viability ([3]; first compound 0.05 µM): 0.62 | relative viability ([3]; first compound 0.1581 µM): 0.635 | relative viability ([3]; first compound 0.5 µM): 0.603 | relative viability ([4]; first compound 0.005 µM): 0.0534 | relative viability ([4]; first compound 0.01581 µM): 0.0601 | relative viability ([4]; first compound 0.05 µM): 0.0633 | relative viability ([4]; first compound 0.1581 µM): 0.0503 | relative viability ([4]; first compound 0.5 µM): 0.0638

NCI-H1395
relative viability ([1]; first compound 0.005 µM): 0.939 | relative viability ([1]; first compound 0.01581 µM): 1.05 | relative viability ([1]; first compound 0.05 µM): 0.973 | relative viability ([1]; first compound 0.1581 µM): 0.914 | relative viability ([1]; first compound 0.5 µM): 0.937 | relative viability ([2]; first compound 0.005 µM): 0.587 | relative viability ([2]; first compound 0.01581 µM): 0.561 | relative viability ([2]; first compound 0.05 µM): 0.688 | relative viability ([2]; first compound 0.1581 µM): 0.681 | relative viability ([2]; first compound 0.5 µM): 0.592 | relative viability ([3]; first compound 0.005 µM): 0.388 | relative viability ([3]; first compound 0.01581 µM): 0.378 | relative viability ([3]; first compound 0.05 µM): 0.377 | relative viability ([3]; first compound 0.1581 µM): 0.385 | relative viability ([3]; first compound 0.5 µM): 0.354 | relative viability ([4]; first compound 0.005 µM): 0.951 | relative viability ([4]; first compound 0.01581 µM): 0.811 | relative viability ([4]; first compound 0.05 µM): 0.827 | relative viability ([4]; first compound 0.1581 µM): 0.92 | relative viability ([4]; first compound 0.5 µM): 0.752

NCI-H2170
relative viability ([1]; first compound 0.005 µM): 0.962 | relative viability ([1]; first compound 0.01581 µM): 1.01 | relative viability ([1]; first compound 0.05 µM): 0.906 | relative viability ([1]; first compound 0.1581 µM): 0.369 | relative viability ([1]; first compound 0.5 µM): 0.294 | relative viability ([2]; first compound 0.005 µM): 0.67 | relative viability ([2]; first compound 0.01581 µM): 0.5 | relative viability ([2]; first compound 0.05 µM): 0.293 | relative viability ([2]; first compound 0.1581 µM): 0.192 | relative viability ([2]; first compound 0.5 µM): 0.191 | relative viability ([3]; first compound 0.005 µM): 0.66 | relative viability ([3]; first compound 0.01581 µM): 0.55 | relative viability ([3]; first compound 0.05 µM): 0.245 | relative viability ([3]; first compound 0.1581 µM): 0.144 | relative viability ([3]; first compound 0.5 µM): 0.151 | relative viability ([4]; first compound 0.005 µM): 0.251 | relative viability ([4]; first compound 0.01581 µM): 0.245 | relative viability ([4]; first compound 0.05 µM): 0.25 | relative viability ([4]; first compound 0.1581 µM): 0.214 | relative viability ([4]; first compound 0.5 µM): 0.212
